A short description of this data set: Dynamic vapor sorption (DVS) analysis. The format is physicochemical. As to conditions: for hygroscopicity / water uptake by dynamic vapor sorption (DVS): 25° C., 10% RH steps from 5 to 95% RH and from 95 to 5% RH. As to the method:
DVS analysis was carried out using a TA Instruments Q5000 Dynamic Vapor Sorption analyzer. The instrument was calibrated with standard weights and a sodium bromide standard for humidity. Approximately 20 mg of sample was loaded into a metal-coated quartz pan for analysis. The sample was analyzed at 25° C. with a maximum equilibration time of one hour in 10% relative humidity (RH) steps from 5 to 95% RH (adsorption cycle) and from 95 to 5% RH (desorption cycle). The movement from one step to the next occurred either after satisfying the equilibrium criterion of 0.01% weight change or, if the equilibrium criterion was not met, after one hour. The percent weight change values were calculated using Microsoft Excel®. The temperature for the DVS analysis can impact the outcome of the results.
Differential Scanning Calorimetry (5° C./min), Thermogravimetric analysis (5° C./min), and Dynamic Vapor Sorption (stepwise RH decrease from 45% to 0% at 50° C.) data for highly crystalline Form A of Compound I′ prepared analogously to the crystallization method above is shown in FIGS. 27-29, respectively.

Turning to `CCOC(=O)c1c(F)ccc2c1O[B-]1(C=C2)O[C@@H](c2ccccc2)[C@H](C)[NH+]1C` (stereo partly shown) [Compound A-3, pseudoephedrine complex of ethyl 7-fluoro-2-hydroxy-2H-benzo[e][1,2]oxaborinine-8-carboxylate], the “hygroscopicity / water uptake by dynamic vapor sorption (DVS)” value (“hygroscopicity / water uptake” below) was “not hygroscopic”.

For the molecule `CCOC(=O)c1c(F)ccc2c1O[B-]1(O[C@@H](c3ccccc3)[C@H](C)[NH+]1C)[C@@H]1C[C@H]21` (stereo partly shown) [Compound A-4], the “hygroscopicity / water uptake” value is recorded as “not hygroscopic”.

Regarding `O=C([O-])c1c(F)ccc2c1O[B-](O)(O)[C@@H]1C[C@H]21.[Na+].[Na+]` [Form A of Compound I′], the “hygroscopicity / water uptake” value was “hygroscopic”. In addition, for the setting “relative humidity range of 5% to 75%, FIG. 29, stepwise RH decrease from 45% to 0% at 50° C.”, the “gain/loss of water by dynamic vapor sorption (DVS), highly crystalline sample” value is on record as “resists gain/loss of water”.

(Values after patent US12552815B2, “Boronic acid derivatives and synthesis, polymorphic forms, and therapeutic uses thereof” (QPEX BIOPHARMA, INC., priority 2020, dated 2026).)
